The source of these data is the NIST ThermoML archive (doi:10.1021/je2007378).

± gives the expanded uncertainty stated by the source.

The nature of one data set: excess molar enthalpy (molar enthalpy of mixing); xn = mol fraction of the nth substance listed. The settings on record: 298.15 K; 101 kPa; Liquid; Calvet calorimetry; x1 = 0.5.
Consider `C[Si](C)(C)O[Si](C)(C)O[Si](C)(C)O[Si](C)(C)C` [decamethyltetrasiloxane] + CCCCCCC, for which the excess molar enthalpy worked out at 0.239 ± 0.239 kcal/mol.

Regarding `C[Si](C)(C)O[Si](C)(C)O[Si](C)(C)O[Si](C)(C)O[Si](C)(C)C` [dodecamethylpentasiloxane] + CCCCCCC, the excess molar enthalpy worked out at 0.239 ± 0.239 kcal/mol.

As to `C[Si](C)(C)O[Si](C)(C)C` [hexamethyldisiloxane] + CCCCCCC, the excess molar enthalpy is 1.2 ± 0.239 kcal/mol.

As for `C[Si](C)(C)O[Si](C)(C)O[Si](C)(C)C` [octamethyltrisiloxane] + CCCCCCC, the excess molar enthalpy worked out at 0.239 ± 0.239 kcal/mol.

The data set is the same for the next values; noted with them: 298.15 K; 101 kPa; Liquid; Calvet calorimetry; x2 = 0.5.
For `C[Si]1(C)O[Si](C)(C)O[Si](C)(C)O[Si](C)(C)O[Si](C)(C)O1` [decamethylcyclopentasiloxane] + CCCCCCC, the excess molar enthalpy was determined as 0.239 ± 0.239 kcal/mol.

Turning to `C[Si]1(C)O[Si](C)(C)O[Si](C)(C)O[Si](C)(C)O1` [octamethylcyclotetrasiloxane] + CCCCCCC, the excess molar enthalpy turned out to be 0.239 ± 0.239 kcal/mol.

Assay in a further data set: not given
The settings on record: 298.15 K; 101.33 kPa; Liquid; Vibrating tube method.
With `C[Si]1(C)O[Si](C)(C)O[Si](C)(C)O[Si](C)(C)O[Si](C)(C)O1` [decamethylcyclopentasiloxane], the molar volume is listed as 0.0003889 ± 9.1e-07 m3/mol.

Consider `C[Si](C)(C)O[Si](C)(C)O[Si](C)(C)O[Si](C)(C)C` [decamethyltetrasiloxane], for which the molar volume is on record as 0.0003662 ± 7.9e-07 m3/mol.

On to `C[Si](C)(C)O[Si](C)(C)O[Si](C)(C)O[Si](C)(C)O[Si](C)(C)C` [dodecamethylpentasiloxane], for which the molar volume turned out to be 0.0004424 ± 9.7e-07 m3/mol.

Turning to `CCCCCCC` [heptane], the molar volume is 0.0001474 ± 5e-08 m3/mol.

As to `C[Si](C)(C)O[Si](C)(C)C` [hexamethyldisiloxane], the molar volume was found to be 0.000214 ± 6e-08 m3/mol.

For `C[Si]1(C)O[Si](C)(C)O[Si](C)(C)O[Si](C)(C)O1` [octamethylcyclotetrasiloxane], the molar volume is reported as 0.0003121 ± 1e-07 m3/mol.

Regarding `C[Si](C)(C)O[Si](C)(C)O[Si](C)(C)C` [octamethyltrisiloxane], the molar volume turned out to be 0.0002903 ± 3e-07 m3/mol.
